Results taken from US20260285853A1, “COMPOUNDS AND METHODS FOR MODULATING SPLICING” (REMIX THERAPEUTICS INC., priority 2023, published 2026).
pIC50: −log10 of the molar value. Where a name gives a salt, the structure may show the parent alone.

What was measured:
Assay type in all cases: cell-based
[1] = tested on: SH-SY5Y (human neuroblastoma) cells; experiment: Cell viability, Cell Titer Glo 2.0 assay; conditions: read-out: Viability SHSY5Y.3 GI50
Summary of the method: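 Viability was read by CellTiter-Glo 2.0 luminescence after a 72-hour compound exposure at 37° C. under 5% CO2. Cells were in IMDM plus 10% FBS containing 0.1% DMSO, and medium-only wells gave the blank.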

MYB mRNA [2] = experiment: Splicing RT-qPCR assay, canonical (CJ) and alternative (AJ) junction mRNA, K562 cells; conditions: Homo sapiens, K562.3 cells, 24 hours; for AC50: read-out: MYB AJ (AC50, increase in AJ mRNA); for pIC50: read-out: MYB CJ (IC50, decrease in CJ mRNA)
Protocol: (§1) Compounds described herein were used to modulate RNA transcript abundance in cells. The expression of a target mRNA was measured by detecting the formation of an exon-exon junction in the canonical transcript (CJ). A compound mediated exon-inclusion event was detected by observing an increase in formation of a new junction with an alternative exon (AJ). Real-time qPCR assays were used to detect these splicing switches and interrogate the potency of various compounds towards different target genes. A high-throughput real time quantitative PCR (RT-qPCR) assay was developed to measure these two isoforms of the mRNA (CJ and AJ) for exemplary genes, such as HTT, SMN2, and MYB, together with a control housekeeping gene, GAPDH or GUSB or PPIA, used for normalization. Briefly, the A673 or K562 cell line was treated with various compounds described herein (e.g., compounds of Formula (I)). After treatment, the levels of the HTT, MYB, or SMN2 mRNA targets were determined from each sample of cell lysate by cDNA synthesis followed by qPCR.
(§2) • Cells-to-CT 1-step kit: ThermoFisher A25602, Cells-to-CT lysis reagent: ThermoFisher 4391851C, TaqMan™ Fast Virus 1-Step Master Mix: ThermoFisher 4444436 • GAPDH: VIC-PL, ThermoFisher 4326317E (Assay: Hs99999905_m1)—used for K562/suspension cell lines • GUSB: VIC-PL, ThermoFisher 4326320E (Assay: Hs99999908_m1)—used for K562/suspension cell lines • PPIA: VIC-PL, ThermoFisher 4326316E (Assay: Hs99999904_m1)—used for A673/adherent cell lines
(§3) The K562 cell line was cultured in IMDM with 10% FBS. For K562, cells were diluted with full growth media and plated in either a 96-well plate (50,000 cells in 50 uL media per well) or a 384-well plate (8,000-40,000 cells in 45 uL media per well). An 11-point 3-fold serial dilution of the compounds were made in DMSO then diluted in media in an intermediate plate. Compound was transferred from the intermediate plate to the cell plate with the top dose at a final concentration of 10 uM in the well. Final DMSO concentration was kept at or below 0.25%. Final volume was 100 uL for 96-well plate and 50 uL for 384-well plate. The cell plate was then placed in an incubator at 37° C. with 5% CO2 for 24 hours.
(§4) The cells were then gently washed with 50 uL-100 uL cold PBS before proceeding to addition of lysis buffer. 30 uL-50 uL of room temperature lysis buffer with DNAse I (and optionally RNAsin) was added to each well. Cells were shaken/mixed thoroughly at room temperature for 5-10 minutes for lysis to take place and then 3 uL-5 uL of room temperature stop solution was added and wells were shaken/mixed again. After 2-5 minutes, the cell lysate plate was transferred to ice for RT-qPCR reaction setup. The lysates could also be frozen at −80° C. for later use.
(§5) In some cases, a direct lysis buffer was used. An appropriate volume of 3× lysis buffer (10 mM Tris, 150 mM NaCl, 1.5%-2.5% Igepal and 0.1-1 U/uL RNAsin, pH 7.4) was directly added to either K562 or A673 cells in media and mixed by pipetting 3 times. The plates were then incubated at room temperature with shaking/rocking for 20-50 minutes to allow for lysis to take place. After this time, the cell lysate plate was transferred to ice to set up for the RT-qPCR reactions. The lysates could also be frozen at −80° C. for later use.
(§6) To set up 10 uL RT-qPCR reactions, cell lysates were transferred to 384-well qPCR plates containing the master mix according to the table below. The plates were sealed, gently vortexed, and spun down before the run. The volumes were adjusted accordingly in some instances where the reaction was carried in 20 uL. The table below summarizes the components of the RT-qPCR reactions:
(§7) The RT-qPCR reaction was performed using a QuantStudio (ThermoFisher) under the following fast cycling conditions. All samples and standards were analyzed at least in duplicate. In some instances, bulk room temperature (RT) step of 5-10 minutes was completed for all plates before proceeding with qPCR. […]

HTT mRNA [3] = experiment: as above; conditions: Homo sapiens, K562.3 cells, 24 hours; for AC50: read-out: HTT AJ (AC50, increase in AJ mRNA); for pIC50: read-out: HTT CJ (IC50, decrease in CJ mRNA)
Protocol: as §1, §2, §3, §4, §5, §6, §7

MYB mRNA [4] = experiment: Gene panel canonical junction qPCR assay, decrease in CJ mRNA, Table 3; conditions: decrease in canonical junction (CJ) mRNA, gene panel qPCR, Table 3
Summary of the method: (§8)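 IC50 denotes the concentration giving 50% decrease in canonical-junction mRNA, fitted by 4-parameter logistic to percentage response derived from ΔΔCt versus housekeeping gene and DMSO control. Cells (A673 or K562) exposed 24 h to 11-point 3-fold serial dilutions from 10 uM top, DMSO ≤0.25%; junction-spanning primer/probe qPCR.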

SMN2 mRNA = experiment: as above; conditions: decrease in canonical junction (CJ) mRNA, gene panel qPCR, Table 3
Summary of the method: as §8

HTT mRNA [5] = experiment: as above; conditions: decrease in canonical junction (CJ) mRNA, gene panel qPCR, Table 3
Summary of the method: as §8

MYB mRNA [6] = experiment: Splicing RT-qPCR assay (THP), Table 2A; conditions: Table 2A (THP); for AC50: AJ mRNA increase, read-out: MYB AJ (increase in alternative junction mRNA, AC50); for pIC50: CJ mRNA decrease, read-out: MYB CJ (decrease in canonical junction mRNA, IC50)

Row | GI50 [1] | pIC50 (MYB mRNA [2]) | pIC50 (HTT mRNA [3]) | pIC50 (MYB mRNA [4]) | pIC50 (SMN2 mRNA) | pIC50 (HTT mRNA [5]) | pIC50 (MYB mRNA [6]) | Compound | AC50 (MYB mRNA [2]) | AC50 (HTT mRNA [3]) | AC50 (MYB mRNA [6])
1 | 100 to 1000 nM | 6.00 to 7.00 | 6.00 to 7.00 | 6.00 to 7.00 | > 7.00 | 6.00 to 7.00 | 6.00 to 7.00 | CNC12CC(C1)N(c1ccc(C(=O)Nc3cc(F)c4nc(C)cn4c3)c3nn(C)cc13)C2 [Compound 135, N-(8-fluoro-2-methyl-imidazo[1,2-a]pyridin-6-yl)-2-methyl-4-[4-(methylamino)-2-azabicyclo[2.1.1]hexan-2-yl]-indazole-7-carboxamide] | 100 to 1000 nM | 1000 to 10000 nM | < 100 nM
2 | 100 to 1000 nM | 6.00 to 7.00 | 5.00 to 6.00 | 6.00 to 7.00 | > 7.00 | 5.00 to 6.00 | 6.00 to 7.00 | CCNC12CC(C1)N(c1ccc(C(=O)Nc3cc(F)c4nc(C)cn4c3)c3nn(C)cc13)C2 [Compound 136, 4-[4-(ethylamino)-2-azabicyclo-[2.1.1]hexan-2-yl]N-(8-fluoro-2-methylimidazo[1,2-a]pyridin-6-yl)-2-methyl-indazole-7-carboxamide] | 100 to 1000 nM | 1000 to 10000 nM | 100 to 1000 nM
3 | 100 to 1000 nM | > 7.00 | 5.00 to 6.00 | > 7.00 | > 7.00 | 5.00 to 6.00 | > 7.00 | Cc1cn2cc(NC(=O)c3ccc(N4CC[C@@H](NCC5COC5)C4)c4cn(C)nc34)cc(F)c2n1 [Compound 104, N-(8-fluoro-2-methylimidazo[1,2-a]pyridin-6-yl)-2-methyl-4-[(3R)-3-[(oxetan-3-ylmethyl)amino]pyrrolidin-1-yl]indazole-7-carboxamide] | < 100 nM | 1000 to 10000 nM | < 100 nM
4 | 1000 to 10000 nM | 6.00 to 7.00 | 5.00 to 6.00 | 6.00 to 7.00 | > 7.00 | 5.00 to 6.00 | – | Cc1cn2cc(NC(=O)c3ccc(N4CC[C@@H]5CNCC[C@@H]54)c4cn(C)nc34)cc(F)c2n1 (stereo in doubt) [Compound 101, N-(8-fluoro-2-methyl-imidazo[1,2-a]-pyridin-6-yl)-2-methyl-4-(octahydro-pyrrolo[3,2-c]-pyridin-1-yl)indazole-7-carboxamide hydrochloride] | 100 to 1000 nM | 1000 to 10000 nM | –
5 | 1000 to 10000 nM | 6.00 to 7.00 | 5.00 to 6.00 | 6.00 to 7.00 | > 7.00 | 5.00 to 6.00 | – | Cc1cn2cc(NC(=O)c3ccc(N4CCC5NCCCC54)c4cn(C)nc34)cc(F)c2n1 (centres unmarked) [Compound 100, N-(8-fluoro-2-methylimidazo[1,2-a]pyridin-6-yl)-2-methyl-4-(octahydropyrrolo[3,2-b]pyridin-1-yl)indazole-7-carboxamide] | 100 to 1000 nM | 1000 to 10000 nM | –
6 | 1000 to 10000 nM | 6.00 to 7.00 | 5.00 to 6.00 | 6.00 to 7.00 | > 7.00 | 5.00 to 6.00 | – | Cc1cn2cc(NC(=O)c3ccc(N4CC[C@H](NCCO)C4)c4cn(C)nc34)cc(F)c2n1 [Compound 115, N-(8-fluoro-2-methylimidazo-[1,2-a]-pyridin-6-yl)-4-[(3S)-3-(2-hydroxy-ethylamino)-pyrrolidin-1-yl]-2-methylindazole-7-carboxamide] | 100 to 1000 nM | 1000 to 10000 nM | –

Further lines, the molecule ahead of its results:

Row | Compound | GI50 [1] | pIC50 (MYB mRNA [2]) | pIC50 (HTT mRNA [3]) | pIC50 (MYB mRNA [4]) | pIC50 (SMN2 mRNA) | pIC50 (HTT mRNA [5]) | pIC50 (MYB mRNA [6]) | AC50 (MYB mRNA [2]) | AC50 (HTT mRNA [3]) | AC50 (MYB mRNA [6])
7 | COC1CC(N[C@H]2CCN(c3ccc(C(=O)Nc4cc(F)c5nc(C)cn5c4)c4nn(C)cc34)C2)C1 (stereo partly drawn) [Compound 268, N-(8-fluoro-2-methyl-imidazo[1,2-a]pyridin-6-yl)-4-[(3S)-3-[(3-methoxy-cyclobutyl)amino]pyrrolidin-1-yl]-2-methyl-indazole-7-carboxamide] | 100 to 1000 nM | > 7.00 | 6.00 to 7.00 | > 7.00 | > 7.00 | 6.00 to 7.00 | > 7.00 | 100 to 1000 nM | 1000 to 10000 nM | < 100 nM
8 | Cc1cn2cc(NC(=O)c3ccc(N4CCNCC4)c4nonc34)cc(F)c2n1 [Compound 263, N-(8-fluoro-2-methyl-imidazo[1,2-a]pyridin-6-yl)-4-piperazin-1-yl-2,1,3-benzoxadiazole-7-carboxamide] | 1000 to 10000 nM | 6.00 to 7.00 | 6.00 to 7.00 | 6.00 to 7.00 | > 7.00 | 6.00 to 7.00 | 6.00 to 7.00 | 100 to 1000 nM | 1000 to 10000 nM | 100 to 1000 nM
9 | CCNC1CCN(c2ccc(C(=O)Nc3cc(F)c4nc(C)cn4c3)c3[nH]ccc23)CC1 [Compound 172, 4-[4-(ethylamino)piperidin-1-yl]-N-(8-fluoro-2-methylimidazo[1,2-a]pyridin-6-yl)-1H-indole-7-carboxamide] | > 10000 nM | < 5.00 | < 5.00 | < 5.00 | 5.00 to 6.00 | < 5.00 | – | 1000 to 10000 nM | > 10000 nM | –
10 | CCNC1CCN(c2ccc(C(=O)Nc3cn4cc(C)nc4c(F)c3OC)c3[nH]ncc23)CC1 [Compound 170, 4-[4-(ethylamino)piperidin-1-yl]-N-(8-fluoro-7-methoxy-2-methylimidazo[1,2-a]pyridin-6-yl)-1H-indazole-7-carboxamide] | 100 to 1000 nM | > 7.00 | 5.00 to 6.00 | > 7.00 | > 7.00 | 5.00 to 6.00 | – | 100 to 1000 nM | 1000 to 10000 nM | –
11 | CCNC1CCN(c2ccc(C(=O)Nc3cc(F)c4nc(C)cn4c3)c3[nH]ncc23)CC1 [Compound 266, 4-[4-(ethylamino)piperidin-1-yl]-N-(8-fluoro-2-methyl-imidazo[1,2-a]pyridin-6-yl)-1H-indazole-7-carboxamide] | 1000 to 10000 nM | 6.00 to 7.00 | < 5.00 | 6.00 to 7.00 | > 7.00 | < 5.00 | – | 100 to 1000 nM | > 10000 nM | –
